The values below come from ChEMBL document CHEMBL3621069 (Bioorg Med Chem Lett, 2015).

Test [1] concerns the target Voltage-gated inwardly rectifying potassium channel KCNH2 (Homo sapiens, UniProt Q12809). Put plainly: Inhibition of human ERG by manual patch clamp assay.
Test [2] has as its system Proto-oncogene tyrosine-protein kinase Src (Homo sapiens), P12931 [T341M]. In words: Inhibition of human Src T341M mutant at 0.1 uM.
Test [3] concerns Mus musculus. In words: Anti-arthritic activity in DBA1/J mouse model of collagen-induced arthritis assessed as reduction in arthritis clinical scores at 10 mg/kg, po administered orally continued once daily and twice daily through study. Format: functional.
Test [4] addresses Tyrosine-protein kinase Yes (Homo sapiens) (UniProt P07947). In words: Inhibition of human Yes at 0.1 uM.
Test [5] addresses Tyrosine-protein kinase HCK (Homo sapiens) (UniProt P08631). Put plainly: Inhibition of human Hck at 0.1 uM.
The test system of test [6] is Tyrosine-protein kinase ABL1 (Homo sapiens), P00519 [Q252H]. Put plainly: Inhibition of human Abl Q252H mutant at 0.1 uM.
Test [7] concerns the target Tyrosine-protein kinase SYK (Homo sapiens, UniProt P43405). In words: Inhibition of SYK-mediated TNFalpha production in human IgG-stimulated human THP1 cells incubated for 18 hrs by ELISA method. The format is cell-based, THP-1. For orientation: In an ELISA, binding on a coated surface is turned into a signal by an enzyme label.

Sequence of Tyrosine-protein kinase HCK (Homo sapiens) (P08631 2-526 limits assumed): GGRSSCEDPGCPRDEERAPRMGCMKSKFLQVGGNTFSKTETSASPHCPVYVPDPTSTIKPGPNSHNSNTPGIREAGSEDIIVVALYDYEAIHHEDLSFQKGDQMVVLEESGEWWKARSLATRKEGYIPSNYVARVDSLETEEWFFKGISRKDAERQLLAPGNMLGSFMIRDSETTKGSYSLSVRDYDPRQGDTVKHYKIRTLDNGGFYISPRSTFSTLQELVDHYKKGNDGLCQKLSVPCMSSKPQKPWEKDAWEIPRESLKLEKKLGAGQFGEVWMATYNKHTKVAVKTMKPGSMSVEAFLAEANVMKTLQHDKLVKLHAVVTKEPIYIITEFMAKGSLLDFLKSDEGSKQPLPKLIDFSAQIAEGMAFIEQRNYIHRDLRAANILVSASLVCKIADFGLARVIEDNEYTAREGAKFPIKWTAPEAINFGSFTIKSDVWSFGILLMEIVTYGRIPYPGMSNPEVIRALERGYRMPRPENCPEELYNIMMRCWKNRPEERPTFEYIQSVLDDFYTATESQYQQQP
Sequence of Voltage-gated inwardly rectifying potassium channel KCNH2 (Q12809 whole entry): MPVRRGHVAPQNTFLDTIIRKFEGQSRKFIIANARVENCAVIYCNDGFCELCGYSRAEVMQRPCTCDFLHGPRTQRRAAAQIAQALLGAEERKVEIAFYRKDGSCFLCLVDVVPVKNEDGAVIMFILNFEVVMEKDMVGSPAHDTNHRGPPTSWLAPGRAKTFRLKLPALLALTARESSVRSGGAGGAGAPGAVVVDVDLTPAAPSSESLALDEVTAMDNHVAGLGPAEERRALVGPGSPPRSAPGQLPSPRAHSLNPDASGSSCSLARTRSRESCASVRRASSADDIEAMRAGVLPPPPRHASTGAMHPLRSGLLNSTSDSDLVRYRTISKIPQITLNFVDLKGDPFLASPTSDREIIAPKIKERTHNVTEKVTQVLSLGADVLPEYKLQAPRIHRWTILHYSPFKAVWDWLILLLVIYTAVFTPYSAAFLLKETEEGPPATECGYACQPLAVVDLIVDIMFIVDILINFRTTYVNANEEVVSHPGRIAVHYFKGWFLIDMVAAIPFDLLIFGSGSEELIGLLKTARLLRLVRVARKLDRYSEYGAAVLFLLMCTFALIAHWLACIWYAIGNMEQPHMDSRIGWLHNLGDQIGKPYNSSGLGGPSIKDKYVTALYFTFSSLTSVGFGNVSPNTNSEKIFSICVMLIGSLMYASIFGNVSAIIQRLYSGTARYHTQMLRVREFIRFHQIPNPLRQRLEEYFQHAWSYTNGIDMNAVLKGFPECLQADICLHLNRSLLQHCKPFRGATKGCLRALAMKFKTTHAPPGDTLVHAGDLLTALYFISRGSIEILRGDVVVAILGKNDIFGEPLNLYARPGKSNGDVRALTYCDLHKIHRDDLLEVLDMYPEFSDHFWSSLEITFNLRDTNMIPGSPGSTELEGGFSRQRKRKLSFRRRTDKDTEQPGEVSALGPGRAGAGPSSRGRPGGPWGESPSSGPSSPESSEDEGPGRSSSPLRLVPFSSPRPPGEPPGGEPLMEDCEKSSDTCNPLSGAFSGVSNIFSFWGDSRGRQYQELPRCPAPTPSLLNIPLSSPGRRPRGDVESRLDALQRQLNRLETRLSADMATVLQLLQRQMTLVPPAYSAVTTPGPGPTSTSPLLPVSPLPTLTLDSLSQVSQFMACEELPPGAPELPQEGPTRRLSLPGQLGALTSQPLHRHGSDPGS
Sequence of Tyrosine-protein kinase Yes (Homo sapiens) (P07947 2-543 limits assumed): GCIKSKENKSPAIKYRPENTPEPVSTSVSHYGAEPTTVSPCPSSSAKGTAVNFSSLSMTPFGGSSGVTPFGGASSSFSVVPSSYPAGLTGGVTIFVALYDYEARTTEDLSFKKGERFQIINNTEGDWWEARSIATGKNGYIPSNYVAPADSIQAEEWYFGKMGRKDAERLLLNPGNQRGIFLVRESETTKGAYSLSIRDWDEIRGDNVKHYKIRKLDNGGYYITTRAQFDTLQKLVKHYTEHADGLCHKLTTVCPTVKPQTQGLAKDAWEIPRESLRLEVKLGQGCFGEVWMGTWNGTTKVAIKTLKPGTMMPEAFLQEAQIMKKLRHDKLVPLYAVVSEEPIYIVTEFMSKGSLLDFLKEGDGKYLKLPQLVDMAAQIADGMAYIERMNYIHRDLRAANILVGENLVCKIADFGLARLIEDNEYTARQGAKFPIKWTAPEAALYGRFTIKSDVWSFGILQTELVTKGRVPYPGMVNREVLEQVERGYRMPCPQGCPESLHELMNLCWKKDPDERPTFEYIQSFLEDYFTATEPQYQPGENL
Sequence of Proto-oncogene tyrosine-protein kinase Src (Homo sapiens), P12931 [T341M] (P12931 whole entry T341M, looked up): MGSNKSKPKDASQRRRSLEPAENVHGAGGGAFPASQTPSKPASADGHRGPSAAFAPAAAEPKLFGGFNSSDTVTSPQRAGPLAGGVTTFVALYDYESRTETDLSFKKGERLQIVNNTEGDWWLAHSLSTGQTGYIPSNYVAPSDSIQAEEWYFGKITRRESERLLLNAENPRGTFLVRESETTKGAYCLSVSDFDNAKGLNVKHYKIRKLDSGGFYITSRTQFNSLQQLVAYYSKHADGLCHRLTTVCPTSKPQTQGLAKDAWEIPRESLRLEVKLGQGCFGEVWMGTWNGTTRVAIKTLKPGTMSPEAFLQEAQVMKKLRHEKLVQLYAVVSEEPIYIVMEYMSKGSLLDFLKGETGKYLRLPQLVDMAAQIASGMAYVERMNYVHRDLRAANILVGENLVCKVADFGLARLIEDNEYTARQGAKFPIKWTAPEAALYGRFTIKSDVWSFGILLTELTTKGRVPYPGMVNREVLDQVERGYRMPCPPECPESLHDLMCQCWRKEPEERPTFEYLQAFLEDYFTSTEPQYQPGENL

As usually defined, the IC50 is the point on the concentration scale where inhibition reaches its midpoint. Low readings indicate greater potency, high ones weaker potency. What is called inhibition is the share of the control response that was lost under treatment. Higher therefore signals strong suppression. In general, inhibition in vivo refers to the relative decrease from the control value, in per cent. The molecule `Cc1nn(-c2ccnc(Nc3ccc4c(c3)c(Cl)c(C)n4C)n2)cc1CN1CC(O)C1` displayed a 50% inhibitory concentration (IC50) in test [1] of 24.2 µM. In addition, the inhibition in test [2] is < 25%; in test [4], < 25%; in test [5], < 25%; in test [6], > 70%. Further, the inhibition in vivo at 10 mg/kg in test [3] worked out at 30%.
As to `Cc1nn(-c2ccnc(Nc3ccc4c(c3)c(C)c(C)n4C)n2)cc1CN1CC(O)C1`, in test [7], 0.056 µM corresponded to half-maximal inhibition (IC50).
